Values of other authors as cited in article PMC7350276 (Journal of pharmaceutical and biomedical analysis, 2019).
Read-outs that look alike come from different tables or passages of the source.

How the values were obtained:
[1] = male rats, I.V. 4 mg/kg
μ-opioid receptors [2] = tested on: μ-opioid receptors
μ-opioid receptors [3] = conditions: reversal of morphine-induced inhibition of twitch of the Guinea pig ileum
rabbits [4] = conditions: intravenously at doses higher than 10 mg/kg
rabbits [5] = conditions: subcutaneous 15–20 mg/kg, co-injected with 0.2 mg/kg adrenaline
[6] = I.V. 5 mg/kg, mean ± R.S.D.

In the case of `CC[C@@H]1CN2CC[C@@]3(O)C(=Nc4cccc(OC)c43)[C@@H]2C[C@@H]1/C(=C\OC)C(=O)OC` [7HMG, 7-hydroxymitragynine], the MRT [1] is given as 70.9 ± 10 min and the “Functional activity at μ-opioid receptors” value (“Functional activity” for short) (μ-opioid receptors [2]; no reference given) is given as “potent μ-opioid agonist”.
In the case of corynantheidine, the “Functional activity” value (μ-opioid receptors [3]) is listed as “antagonist”, the “Effect on hypertensive effects of adrenaline” value (rabbits [4]) is listed as “almost fully blocked” and the “Effect on adrenaline-induced mydriasis” value (rabbits [5]) is listed as “prevented adrenaline-induced mydriasis”.
In the case of mitragynine [MG], the MRT [6] is listed as 137 ± 18 and the “Functional activity” value (μ-opioid receptors [2]) is listed as “partial agonist”.
